IC50 data for 4 compounds are collected here from US20040072770A1, “Methods for specifically inhibiting histone deacetylase-7 and 8” (priority 2002, published 2004).

One may read the IC50 as the midpoint of a concentration-inhibition curve.

One test deals with T1, HDAC-7 (Homo sapiens, UniProt Q8WUI4).
T1 sequence (Q8WUI4 1-952): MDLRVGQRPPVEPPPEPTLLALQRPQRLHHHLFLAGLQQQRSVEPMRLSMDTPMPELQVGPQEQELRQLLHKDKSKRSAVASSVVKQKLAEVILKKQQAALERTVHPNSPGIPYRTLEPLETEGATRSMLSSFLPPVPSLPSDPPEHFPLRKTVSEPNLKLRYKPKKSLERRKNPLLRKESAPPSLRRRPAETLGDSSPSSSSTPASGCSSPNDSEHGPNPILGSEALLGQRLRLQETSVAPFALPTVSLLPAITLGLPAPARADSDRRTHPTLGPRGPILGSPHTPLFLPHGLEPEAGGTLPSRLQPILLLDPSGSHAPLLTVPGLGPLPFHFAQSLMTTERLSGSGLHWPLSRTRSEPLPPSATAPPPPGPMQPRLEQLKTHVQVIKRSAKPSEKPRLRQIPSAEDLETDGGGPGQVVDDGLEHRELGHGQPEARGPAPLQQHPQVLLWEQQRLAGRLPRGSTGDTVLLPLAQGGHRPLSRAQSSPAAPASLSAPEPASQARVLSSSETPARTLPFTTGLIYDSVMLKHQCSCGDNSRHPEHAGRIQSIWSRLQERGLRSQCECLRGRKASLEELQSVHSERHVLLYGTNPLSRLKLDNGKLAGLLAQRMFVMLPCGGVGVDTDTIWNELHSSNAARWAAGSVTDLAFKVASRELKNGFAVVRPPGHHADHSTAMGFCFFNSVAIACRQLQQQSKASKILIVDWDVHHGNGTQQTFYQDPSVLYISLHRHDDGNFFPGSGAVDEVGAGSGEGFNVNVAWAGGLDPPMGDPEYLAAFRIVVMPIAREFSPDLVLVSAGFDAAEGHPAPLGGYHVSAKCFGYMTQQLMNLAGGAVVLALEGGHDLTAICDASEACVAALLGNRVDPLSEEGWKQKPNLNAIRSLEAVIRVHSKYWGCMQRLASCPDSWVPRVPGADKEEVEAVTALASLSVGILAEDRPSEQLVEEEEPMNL
Description: Enzyme inhibitory activity, HD7. The test is classed as biochemical. The settings on record: read-out: IC50 HD 7.

In test [1] the test system is prostate cancer cell line Du145. Briefly: MTT assay, Du145. The test is classed as cell-based. The settings on record: Homo sapiens, DU-145; 72 hours. On the procedure:
(§1) Effects of HDAC isotype-specific small molecule inhibitors on growth inhibition of various human cancer cells (from ATCC) in vitro were determined by MTT assays. Briefly, cells seeded in 96-well plates were incubated for 72 hours at 37° C. in a 5% CO2 incubator. MTT (Sigma) was added at a final concentration of 0.5 mg/ml and incubated with the cells for 4 hours before an equal volume of solubilization buffer (50% N,N-dimethylformamide, 20% SDS, pH 4.7) was added onto cultured cells. After overnight incubation, solubilized dye was quantified by colorimetric reading at […] using a reference at 630 nM. OD values were converted to cell numbers according to a standard growth curve of the relevant cell line. The concentration which reduces cell numbers to 50% of those of DMSO-treated cells is determined as MTT IC50. In Table 4, IC50s of several HDAC7 or HDAC8 inhibitors in MTT assays in various human cancer cell lines were listed. They include colon cancer cells HCT116 and SW48, lung cancer cells A549 and H446, breast cancer cells MCF-7 and MDAmb231, a prostate cancer cell line Du145 and a bladder cancer cell line T24.
(In general: Tetrazolium assays rely on reduction of a dye to a coloured formazan, in cell work by metabolically active cells.)

The next test has as its system lung cancer cells A549. Briefly: MTT assay, A549. Type of test: cell-based. The note with it: Homo sapiens, 72 hours, read-out: IC50 A 549 (MTT). On the procedure:
as §1

Test [2] relates to breast cancer cells MCF-7. Description: MTT assay, MCF-7. The settings on record: Homo sapiens, MCF7; 72 hours. The test is classed as cell-based. On the procedure:
as §1

Test [3] deals with breast cancer cells MDAmb231. Briefly: MTT assay, MDAmb231. Type of test: cell-based. The note with it: Homo sapiens, MDA-MB-231; 72 hours. On the procedure: as §1
The subject of another test is colon cancer cells SW48. Briefly: MTT assay, SW48. The settings on record: Homo sapiens, 72 hours, read-out: MTT IC50 SW 48. Type of test: cell-based. On the procedure: as §1
Test [4] deals with bladder cancer cell line T24. Briefly: MTT assay, T24. The test is classed as cell-based. The settings on record: Homo sapiens; 72 hours; read-out: MTT IC50 T 24. On the procedure:
as §1

In another test the target is HDAC-1 (Homo sapiens, UniProt Q13547). Briefly: Enzyme inhibitory activity, HD1. The test is classed as biochemical. The note with it: read-out: IC50 HD 1.
The next test concerns the target HDAC-4 (Homo sapiens, UniProt P56524). Description: Enzyme inhibitory activity, HD4. Type of test: biochemical.

Sequence of HDAC-1 (Q13547 whole entry): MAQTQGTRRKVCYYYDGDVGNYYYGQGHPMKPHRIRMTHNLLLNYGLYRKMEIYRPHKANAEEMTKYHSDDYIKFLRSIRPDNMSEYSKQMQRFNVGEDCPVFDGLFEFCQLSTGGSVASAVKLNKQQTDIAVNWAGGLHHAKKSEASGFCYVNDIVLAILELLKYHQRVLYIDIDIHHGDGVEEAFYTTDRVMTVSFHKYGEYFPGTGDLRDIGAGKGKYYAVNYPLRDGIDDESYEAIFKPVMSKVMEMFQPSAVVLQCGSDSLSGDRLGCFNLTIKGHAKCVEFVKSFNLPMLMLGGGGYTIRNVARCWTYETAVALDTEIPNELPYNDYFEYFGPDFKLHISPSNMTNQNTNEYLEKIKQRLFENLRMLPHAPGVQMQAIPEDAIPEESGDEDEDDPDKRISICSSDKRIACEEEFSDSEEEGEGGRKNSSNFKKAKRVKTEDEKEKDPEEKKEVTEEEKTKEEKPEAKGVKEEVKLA
Sequence of HDAC-4 (P56524 whole entry): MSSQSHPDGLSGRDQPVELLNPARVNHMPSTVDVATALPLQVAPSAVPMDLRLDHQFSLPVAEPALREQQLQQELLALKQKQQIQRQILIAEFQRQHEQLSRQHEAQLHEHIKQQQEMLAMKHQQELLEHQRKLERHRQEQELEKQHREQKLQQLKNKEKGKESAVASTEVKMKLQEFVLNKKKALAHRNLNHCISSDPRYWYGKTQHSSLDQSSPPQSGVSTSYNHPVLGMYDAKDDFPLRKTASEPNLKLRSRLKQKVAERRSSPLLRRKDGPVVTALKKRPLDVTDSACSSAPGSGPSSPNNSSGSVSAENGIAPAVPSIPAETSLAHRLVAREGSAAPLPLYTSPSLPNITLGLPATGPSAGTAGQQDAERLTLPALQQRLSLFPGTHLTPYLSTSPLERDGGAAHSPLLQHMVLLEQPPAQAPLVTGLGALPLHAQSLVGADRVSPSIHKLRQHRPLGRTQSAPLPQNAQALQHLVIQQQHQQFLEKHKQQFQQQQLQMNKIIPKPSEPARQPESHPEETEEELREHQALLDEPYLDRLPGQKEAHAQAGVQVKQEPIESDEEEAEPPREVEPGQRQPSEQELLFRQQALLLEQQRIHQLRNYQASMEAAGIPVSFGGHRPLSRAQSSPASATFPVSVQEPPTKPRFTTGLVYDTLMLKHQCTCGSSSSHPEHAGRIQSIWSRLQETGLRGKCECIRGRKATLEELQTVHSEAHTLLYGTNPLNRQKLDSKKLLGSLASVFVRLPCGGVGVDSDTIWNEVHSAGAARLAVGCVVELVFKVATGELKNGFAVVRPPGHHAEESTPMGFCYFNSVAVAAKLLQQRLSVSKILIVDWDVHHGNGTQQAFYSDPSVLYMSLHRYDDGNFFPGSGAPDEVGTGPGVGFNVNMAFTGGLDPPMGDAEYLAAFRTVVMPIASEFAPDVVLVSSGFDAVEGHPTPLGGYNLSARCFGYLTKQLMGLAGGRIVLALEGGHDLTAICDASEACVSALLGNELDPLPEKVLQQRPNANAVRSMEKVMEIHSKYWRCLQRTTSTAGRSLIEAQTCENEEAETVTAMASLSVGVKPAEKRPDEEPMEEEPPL

Regarding `Cc1ccc(S(=O)(=O)Nc2ccc(/C=C/C(=O)Nc3ccccc3N)cc2)cc1` [Compound 5, N-(2-Aminophenyl)-3-[4-(4-methylbenzenesulfonylamino)-phenyl]-acrylamide], the 50% inhibitory concentration (IC50) on HDAC-7 is 20000 nM; in test [1] it was 2000 nM; in the test on lung cancer cells A549 it was 8000 nM; in test [2] it was 6000 nM; in test [3], 2000 nM; with colon cancer cells SW48, 10000 nM. Moreover, the IC50 in test [4] turned out to be 8000 nM.

Turning to `Nc1ccccc1NC(=O)c1ccc(CSc2nc3ccccc3[nH]2)cc1` [Compound 16, N-(2-Amino-phenyl)-4-(1H-benzimidazol-2-ylsulfanylmethyl)-benzamide], the IC50 on HDAC-1 was found to be 300 nM; at HDAC-4, 29000 nM; on HDAC-7, 38000 nM; in [1], 700 nM; in the test on lung cancer cells A549 it was 2000 nM; in test [2], 3000 nM. Also, the values for the IC50 (in test [3]; in the test on colon cancer cells SW48; in [4]) were 1000 nM, 2000 nM and 1000 nM, respectively.

In the case of `COc1ccc(NCc2ccc(C(=O)Nc3ccccc3N)cc2)cc1OC` [Compound 17, N-(2-Aminophenyl)-4-[(3,4-dimethoxyphenylamino)-methyl]-benzamide], the half-inhibitory concentration (IC50) at HDAC-1 was 2000 nM; at HDAC-4, above 50000 nM; at HDAC-7 it was 45000 nM; in test [1], 2000 nM; with lung cancer cells A549 it was 3000 nM; in test [2] it was 3000 nM. The IC50 (in test [3]; in the test on colon cancer cells SW48; in [4]) was 2000 nM in each case.

For the compound `COc1ccc(-c2ccnc(NCc3ccc(C(=O)Nc4ccccc4N)cc3)n2)cc1OC` [Compound 21, N-(2-Amino-phenyl)-4-{[4-(3,4-dimethoxy-phenyl)-pyrimidin-2-ylamino]-methyl}-benzamide], the half-maximal inhibitory concentration (IC50) at HDAC-1 was 4000 nM; against HDAC-4, above 50000 nM; at HDAC-7 it was 37000 nM; in test [1], 500 nM; in the test on lung cancer cells A549 it was 300 nM; in test [2], 700 nM. Besides, the IC50 in [3] turned out to be 500 nM; in the test on colon cancer cells SW48, 800 nM.
